Results on 1 compound are retold here after ChEMBL document CHEMBL6182945, “MMAE-Based Peptide-Drug Conjugates Targeting GPC3 for Precision Chemoradiotherapy in Hepatocellular Carcinoma” (J Med Chem, 2025).

Calls of active or inactive are those of the source. No cut-off for these calls is given here.

Experiment [1] deals with Huh-7. The experiment is described as follows: Cell cycle arrest in human Huh-7 cells assessed as accumulation of cells at S phase at 30 nM measured after 24 hrs incubation by PI staining based flow cytometry (reference value: 33.15%). The format is functional.
The test system of experiment [2] is LX-2. The experiment in a line: Cell cycle arrest in human LX-2 cells assessed as accumulation of cells at G0/G1 phase at 30 nM measured after 24 hrs incubation by PI staining based flow cytometry (reference value: 48.42%). It counts as functional.
In experiment [3] the test system is Huh-7. The experiment in a line: In vivo antitumor activity against human Huh-7 cells xenografted in female BALB/c mouse assessed as gamma-H2AX positive cells at 1 mg/kg, iv followed by irradiated with 2 Gy for 2 consecutive days, once a week for 3 weeks measured on day 22. The format is functional, organism-based. Conditions: time 22.0 day. Background: A xenograft is tissue or cells of one species grown in another, often human tumour cells in immunodeficient mice.

Experiment [4] has as its system Huh-7. The experiment in a line: Induction of DNA damage in human irradiated Huh-7 cells assessed as increase in DNA double break by measuring gamma-H2AX foci formation at 100 nM measured after 24 hrs by immunostaining assay relative to compound alone/irradiation alone. It counts as functional, cell-based.
In experiment [5] the target is Serine/threonine-protein kinase Chk2 (Homo sapiens) (UniProt O96017). The experiment is described as follows: Induction of CHK2 phosphorylation in human irradiated Huh-7 cells at 100 nM measured after 24 hrs by Western blot analysis. It counts as cell-based.
In experiment [6] the test system is Huh-7. The experiment is described as follows: Cell cycle arrest in human Huh-7 cells assessed as accumulation of cells at S phase at 50 nM measured after 30 hrs incubation by PI staining based flow cytometry (reference value: 37.30%). The format is functional.
Experiment [7] has as its system LX-2. The experiment in a line: Cell cycle arrest in human LX-2 cells assessed as accumulation of cells at G2/M phase at 30 nM measured after 24 hrs incubation by PI staining based flow cytometry (reference value: 14.65%). It counts as functional. Background: Flow cytometry measures light scatter and fluorescence of single cells or particles in a stream.
In experiment [8] the test system is Huh-7. The experiment is described as follows: Cell cycle arrest in human Huh-7 cells assessed as accumulation of cells at S phase at 10 nM measured after 24 hrs incubation by PI staining based flow cytometry (reference value: 33.15%). It counts as functional.
For experiment [9], the system named is Huh-7. The experiment is described as follows: In vivo antitumor activity against human Huh-7 cells xenografted in female BALB/c mouse assessed as delay in tumor growth at 1 mg/kg, iv followed by irradiated with 2 Gy for 2 consecutive days, once a week for 3 weeks measured on day 22. It counts as functional, organism-based. Particulars: time 22.0 day.
The test system of experiment [10] is Huh-7. The experiment in a line: Radiosensitivity in human Huh-7 cells assessed as […] pre-treated overnight at 10 nM followed by irradiated with 2 Gy and measured after 14 days post treatment by crystal staining based clonogenic assay relative to compound alone/irradiation alone. The format is functional. Particulars: time 14.0 day.

In experiment [11] the test system is Huh-7. The experiment in a line: In vivo antitumor activity against human Huh-7 cells xenografted in female BALB/c mouse assessed as delay in tumor growth at 1 mg/kg, iv for 2 consecutive days, once a week for 3 weeks measured on day 22. The format is functional, organism-based. Particulars: time 22.0 day.
For experiment [12], the system named is Huh-7. The experiment is described as follows: In vivo antitumor activity against human Huh-7 cells xenografted in female BALB/c mouse assessed as reduction in tumor volume at 1 mg/kg, iv total 4 doses measured on day 17 relative to control. It counts as functional. Also on record: scale not given: the % may be the effect or the level left. Particulars: time 17 day.

Experiment [13] concerns Huh-7. The experiment is described as follows: Induction of DNA damage in human irradiated Huh-7 cells assessed as increase in DNA double break by measuring number of gamma-H2AX foci formation at 100 nM measured after 24 hrs by immunostaining assay (reference value: 6 +/- 2 foci). The format is functional.
Experiment [14] has as its system LX-2. The experiment is described as follows: Cell cycle arrest in human LX-2 cells assessed as accumulation of cells at G2/M phase at 100 nM measured after 24 hrs incubation by PI staining based flow cytometry (reference value: 14.65%). The format is functional.
Experiment [15] deals with Huh-7. The experiment in a line: Cell cycle arrest in human Huh-7 cells assessed as accumulation of cells at G0/G1 phase at 10 nM measured after 24 hrs incubation by PI staining based flow cytometry (reference value: 47.97%). It counts as functional.
Experiment [16] deals with Huh-7. The experiment in a line: In vivo antitumor activity against human Huh-7 cells xenografted in female BALB/c mouse assessed as reduction in tumor volume at 2 mg/kg, iv total 4 doses measured on day 17 relative to control. The arrangement: scale not given: the % may be the effect or the level left. It counts as functional. Conditions: time 17 day.
For experiment [17], the system named is Huh-7. The experiment is described as follows: Cell cycle arrest in human Huh-7 cells assessed as accumulation of cells at S phase at 50 nM measured after 18 hrs incubation by PI staining based flow cytometry (reference value: 37.30%). The format is functional.

Chain of Serine/threonine-protein kinase Chk2 (Homo sapiens) (O96017 whole entry): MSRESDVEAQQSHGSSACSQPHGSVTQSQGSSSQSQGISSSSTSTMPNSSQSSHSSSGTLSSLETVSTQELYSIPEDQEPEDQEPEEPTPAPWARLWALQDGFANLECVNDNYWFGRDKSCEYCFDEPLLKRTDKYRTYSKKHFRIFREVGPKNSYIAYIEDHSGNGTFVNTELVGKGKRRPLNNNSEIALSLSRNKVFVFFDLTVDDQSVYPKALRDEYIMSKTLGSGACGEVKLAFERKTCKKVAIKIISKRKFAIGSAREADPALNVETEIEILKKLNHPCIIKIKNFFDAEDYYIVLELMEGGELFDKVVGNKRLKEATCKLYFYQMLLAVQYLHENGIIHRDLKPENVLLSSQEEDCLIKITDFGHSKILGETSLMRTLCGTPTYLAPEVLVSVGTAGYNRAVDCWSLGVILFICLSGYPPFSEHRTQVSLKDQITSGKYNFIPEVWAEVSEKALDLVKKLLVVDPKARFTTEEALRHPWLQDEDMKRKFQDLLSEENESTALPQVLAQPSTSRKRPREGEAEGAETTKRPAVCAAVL

Take `CC[C@H](C)[C@@H]([C@@H](CC(=O)N1CCC[C@H]1[C@H](OC)[C@@H](C)C(=O)N[C@H](C)[C@@H](O)c1ccccc1)OC)N(C)C(=O)[C@@H](NC(=O)[C@H](C(C)C)N(C)C(=O)OCc1ccc(NC(=O)[C@H](CCCNC(N)=O)NC(=O)[C@@H](NC(=O)CCCCCN2C(=O)CC(SC[C@H](N)C(=O)N[C@@H](CO)C(=O)N[C@@H](CC(N)=O)C(=O)N[C@@H](CC(=O)O)C(=O)N[C@@H](CCCNC(=N)N)C(=O)N3CCC[C@@H]3C(=O)N3CCC[C@@H]3C(=O)N[C@@H](CC(N)=O)C(=O)N[C@H](C(=O)N[C@@H](CC(C)C)C(=O)N[C@@H](CCC(N)=O)C(=O)N[C@@H](CCCCN)C(=O)N[C@@H](CCCNC(=N)N)C(N)=O)[C@@H](C)CC)C2=O)C(C)C)cc1)C(C)C` (some centres not stated): the Activity in the experiment on Huh-7 [1] was found to be 13.76%; in the experiment with LX-2 [2] it was 46.22%; in the experiment with Huh-7 [6] it was 13.43%; with LX-2 [7], 15.25%; in the experiment with Huh-7 [8], 13.8%; with Huh-7 [12] it was 40%. The Activity worked out at 18 in the experiment with Huh-7 [13]; 23.65% with LX-2 [14]; 50.55% in the experiment on Huh-7 [15]; 66% in the experiment on Huh-7 [16]; 24.32% in the experiment on Huh-7 [17]. Besides, the result (in the experiment on Huh-7 [3]; in the experiment with Huh-7 [4]; in [5]; in the experiment on Huh-7 [9]; in the experiment with Huh-7 [10]; in the experiment with Huh-7 [11]) was Active.
